From US9981972B2, “N-hydroxy bicyclic hydantoin carbamates as tools for identification of serine hydrolase targets” (ABIDE THERAPEUTICS, INC., priority 2014, dated 2018)
“Also recorded” adds a separate entry of the source.

Legend:
Assay type in all cases: biochemical
LYPLA1 = molecular target: T1, LYPLA1 (Mus musculus, UniProt P97823); experiment: Gel-based competitive ABPP in vitro, mouse brain membrane proteome; details: for inhibition at 0.1 µM: 0.1 μM compound, read-out: LYPLA1 % INH 0.1 μM; for inhibition at 0.1 µM / inhibition at 1 µM / inhibition at 10 µM / inhibition at 100 µM: 30 min, one replicate; for inhibition at 1 µM: 1 μM compound, read-out: LYPLA1 % INH 1 μM; for inhibition at 10 µM: 10 μM compound, read-out: LYPLA1 % INH 10 μM; for inhibition at 100 µM: 100 μM compound, read-out: LYPLA1 % INH 100 μM; for LYPLA1 in vitro enzyme activity, % @ 20 μM: mouse brain (mem) proteome
T1 construct: a complex proteome endogenously expressing LYPLA1/2 was incubated with test compound; from tissue; host or cells: mouse brain, membrane fraction
Experimental: (§1) Assay Overview: The purpose of this assay was to determine whether test compounds can inhibit LYPLA1 and LYPLA2 in a complex proteomic lysate and to assess anti-target inhibition using a competitive activity-based proteomic profiling (ABPP) assay. In this assay, a complex proteome endogenously expressing LYPLA1/2 was incubated with test compound followed by reaction with a rhodamine-conjugated fluorophosphonate (FP-Rh) serine-hydrolase specific activity-based probe. The reaction products were separated by SDS-PAGE and visualized in-gel using a flatbed fluorescence scanner. The percentage activity remaining was determined by measuring the integrated optical density of the bands. […] Percent inhibition was calculated relative to a DMSO (no compound) control.
(§2) Protocol Summary: Mouse brain membrane proteome (50 μL reaction volume, 1 mg/mL in DPBS) was treated with 0.1-100 μM test compound (1 μL of a 50× stock in DMSO) for 30 minutes at 37° C. FP-Rh (1 μL of 50× stock in DMSO, Thermo #88318) was added to a final concentration of 2 μM. The reactions were incubated for 30 minutes at 25° C., quenched with 16 μL 4×SDS-PAGE loading buffer (reducing), separated by SDS-PAGE and visualized by in-gel fluorescent scanning. The percentage activity remaining was determined by measuring the integrated optical density of the bands relative to a DMSO-only (no compound) control. Assay Cutoff: Compounds with ≥50% inhibition of targets at 1 μM test compound concentration were considered active.
(§3) N-Hydroxy bicyclic hydantoin carbamates (Compounds 1-20) listed in Table 1 were subjected to gel-based competitive ABPP screening to assess SH reactivity against more than 20 FP-sensitive SHs visible by 1D SDS-PAGE separation and fluorescent detection in the mouse brain proteome (see FIG. 1). […] Compound treatment ([…], 30 minutes) was followed by labeling with SH-specific ABPP probe FP-Rh (2 μM, 30 minutes), 1D-SDS-PAGE, and in-gel fluorescent visualization of FP-labeled proteins. Assignment of LYPLA1/2 bands was based on correlation of molecular weights, expression and inhibition profiles with LC-MS/MS data and recombinant enzyme expression. Proteins were listed as anti-targets if at least 50% inhibition was observed as quantified relative to the DMSO control.
(§4) Compounds 1-20 were subjected to gel-based competitive ABPP profiling to assess potency and selectivity against several dozen FP-sensitive SHs in the mouse brain membrane proteome, which endogenously expresses LYPLA1 and LYPLA2, as well a diversity of potential SH anti-targets. Compounds were tested at 100 μM, 10 μM, 1 μM, and/or 0.1 μM compound concentration.

LYPLA2 = molecular target: T2, LYPLA2 (Mus musculus, UniProt Q9WTL7); experiment: as above; details: for inhibition at 0.1 µM: 0.1 μM compound, read-out: LYPLA2 % INH 0.1 μM; for inhibition at 0.1 µM / inhibition at 1 µM / inhibition at 10 µM / inhibition at 100 µM: 30 min, one replicate; for inhibition at 1 µM: 1 μM compound, read-out: LYPLA2 % INH 1 μM; for inhibition at 10 µM: 10 μM compound, read-out: LYPLA2 % INH 10 μM; for inhibition at 100 µM: 100 μM compound, read-out: LYPLA2 % INH 100 μM; for LYPLA2 in vitro enzyme activity, % @ 20 μM: mouse brain (mem) proteome
T2 construct: a complex proteome endogenously expressing LYPLA1/2 was incubated with test compound; from tissue; host or cells: mouse brain, membrane fraction
Experimental: as §1, §2, §3, §4

[1] = system: FP-sensitive SHs in the mouse brain membrane proteome; experiment: Gel-based competitive ABPP in vitro, mouse brain membrane proteome, anti-targets; details: for Anti-target(s) 0.1 μM: SHs with at least 50% inhibition at 0.1 μM compound; for Anti-target(s) 1 μM: SHs with at least 50% inhibition at 1 μM compound; for Anti-target(s) 10 μM: SHs with at least 50% inhibition at 10 μM compound; for Anti-target(s) 100 μM: SHs with at least 50% inhibition at 100 μM compound
Experimental: as §1, §2, §3, §4

ABHD4 = molecular target: T3, ABHD4 (Homo sapiens, UniProt Q8TB40); experiment: Gel-based competitive ABPP, recombinant enzyme in transfected HEK293T cell lysates; set-up: myc-his; expressed in transfected cells; host or cells: HEK293T, transient transfection, pcDNA3.1/myc-his; lysate used in vitro; details: recombinant, combined HEK293T lysates, gel-based ABPP
T3 sequence (Q8TB40 1-342): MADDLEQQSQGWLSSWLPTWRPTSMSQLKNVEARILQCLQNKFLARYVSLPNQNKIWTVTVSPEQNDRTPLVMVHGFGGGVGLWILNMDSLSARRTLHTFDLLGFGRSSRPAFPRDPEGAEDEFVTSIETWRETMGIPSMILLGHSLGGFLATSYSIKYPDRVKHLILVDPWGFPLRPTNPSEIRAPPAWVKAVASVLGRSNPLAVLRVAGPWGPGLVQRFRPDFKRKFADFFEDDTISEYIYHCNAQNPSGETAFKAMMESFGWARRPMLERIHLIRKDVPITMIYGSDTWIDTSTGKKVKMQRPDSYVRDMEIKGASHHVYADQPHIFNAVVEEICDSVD
Experimental: HEK293T cells were seeded at 2×10^5 per well on 6 well plates and grown for 48 h. They were then transfected with mABHD3 (pCMV-Sport6), hABHD4 (pcDNA3.1/myc-his), hPPT1 (pCMV6-XL5), or hPPT1 S115A (pCMV6-XL5), by incubating 0.5 μg of DNA with 3 μL of PEI MAX (1 mg/mL, Polysciences, Inc) in serum-free DMEM for 30 min, then adding them to cells. After 48 h cells were either treated with compound in situ, as described above, or harvested for in vitro studies. The […] PPT1 mutation was introduced using QuikChange II Site Directed Mutagenesis Kit (Agilent) with the following primers: […]
Human ABHD3 and ABHD4 were recombinantly expressed by transient transfection in HEK293T cells, and the cell lysates were combined to provide a convenient assay for monitor inhibition of both enzymes by gel-based ABPP (see FIG. 8A). […]

ABHD6 = molecular target: T4, ABHD6 (Mus musculus, UniProt Q8R2Y0); experiment: Gel-based competitive ABPP in vitro, mouse brain membrane proteome; details: for ABHD6 in vitro enzyme activity, % @ 20 μM: mouse brain (mem) proteome
T4 construct: from tissue; host or cells: mouse brain, membrane fraction
T4 sequence (Q8R2Y0 1-336): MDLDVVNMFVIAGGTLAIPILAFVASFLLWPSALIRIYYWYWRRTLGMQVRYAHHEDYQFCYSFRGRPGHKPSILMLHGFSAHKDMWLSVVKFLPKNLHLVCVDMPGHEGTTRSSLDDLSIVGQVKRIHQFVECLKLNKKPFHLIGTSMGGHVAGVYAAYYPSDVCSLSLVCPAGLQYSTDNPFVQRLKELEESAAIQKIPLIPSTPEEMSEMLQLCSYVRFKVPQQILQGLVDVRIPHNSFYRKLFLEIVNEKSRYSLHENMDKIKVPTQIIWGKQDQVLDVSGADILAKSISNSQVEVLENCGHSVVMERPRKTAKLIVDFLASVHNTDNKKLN
Experimental: as §1, §2
Assay Overview: The purpose of this assay was to determine IC50 values of powder samples of test compounds for enzyme of interest activity, and anti-targets in a complex proteomic lysate using a gel-based competitive ABPP assay. In this assay, a complex proteome was incubated with test compound followed by reaction with FP-Rh and SDS-PAGE analysis as described above.
Protocol Summary: Soluble HeLa cell proteome (50 μL reaction volume, 1 mg/mL in DPBS) or mouse brain membrane proteome (50 μL reaction volume, 1 mg/mL in DPBS) was treated with varying concentrations of test compound (1 μL of a 50× stock in DMSO) for 30 minutes at 37° C. FP-Rh (1 μL of 50× stock in DMSO) was added to a final concentration of 2 μM. The reaction was incubated for 30 minutes at 25° C., quenched with 16 μL 4×SDS-PAGE loading buffer (reducing), separated by SDS-PAGE and visualized by in-gel fluorescent scanning. The percentage activity remaining was determined by measuring the integrated optical density of the enzymes of interest, and anti-target bands relative to a DMSO-only (no compound) control. IC50 values were determined from dose-response curves from three replicates at each inhibitor concentration: 1, 10, 100, 1000, 10000 nM and 0.01, 0.1, 1, 10, 100, 1000, 10000, 50000, and 100000 nM.

T2 sequence (Q9WTL7 whole entry): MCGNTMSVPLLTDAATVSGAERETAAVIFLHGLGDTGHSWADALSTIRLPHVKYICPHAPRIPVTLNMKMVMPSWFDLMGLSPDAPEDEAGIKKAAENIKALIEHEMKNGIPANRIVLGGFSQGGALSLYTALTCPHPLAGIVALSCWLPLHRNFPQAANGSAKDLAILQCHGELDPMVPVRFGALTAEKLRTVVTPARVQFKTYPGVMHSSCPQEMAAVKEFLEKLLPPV
T1 sequence (P97823 whole entry): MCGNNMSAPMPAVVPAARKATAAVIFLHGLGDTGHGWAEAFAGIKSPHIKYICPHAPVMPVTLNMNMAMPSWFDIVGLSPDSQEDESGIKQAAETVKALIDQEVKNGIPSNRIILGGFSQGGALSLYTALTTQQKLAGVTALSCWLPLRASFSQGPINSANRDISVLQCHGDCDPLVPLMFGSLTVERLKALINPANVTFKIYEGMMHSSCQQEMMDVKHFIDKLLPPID

| SMILES | inhibition at 0.1 µM (LYPLA1) | inhibition at 1 µM (LYPLA1) | inhibition at 10 µM (LYPLA1) | inhibition at 100 µM (LYPLA1) | inhibition at 0.1 µM (LYPLA2) | inhibition at 1 µM (LYPLA2) | inhibition at 10 µM (LYPLA2) | inhibition at 100 µM (LYPLA2) | Anti-target(s) 0.1 μM [1] | Anti-target(s) 1 μM [1] | Anti-target(s) 10 μM [1] | Anti-target(s) 100 μM [1] | preference ABHD4 over ABHD3 (ABHD4) | LYPLA1 in vitro enzyme activity, % @ 20 μM (LYPLA1) | LYPLA2 in vitro enzyme activity, % @ 20 μM (LYPLA2) | ABHD6 in vitro enzyme activity, % @ 20 μM (ABHD6) | potency and selectivity for ABHD6, concentration-dependent profiling (ABHD6; mouse brain membrane SHs, FIG. 7B) |
| --- | --- | --- | --- | --- | --- | --- | --- | --- | --- | --- | --- | --- | --- | --- | --- | --- | --- |
| CC(C)(C)OC(=O)N1CCN2C(=O)N(OC(=O)N3CCOCC3Cc3ccccc3)C(=O)C2C1 (centres unmarked) [Compound 16, 7-(tert-butoxycarbonyl)-1,3-dioxohexahydroimidazo[1,5-a]pyrazin-2(3H)-yl 3-benzylmorpholine-4-carboxylate] | 0% | 0% | 0% | 0% | 0% | 0% | 0% | 0% | none | none | ABHD6 | ABHD6 | – | – | – | – | – |
| O=C(ON1C(=O)C2CN(Cc3ccc(Br)cc3)CCN2C1=O)N1CCC(CCc2ccc(Cl)cc2)CC1 (centres unmarked) [Compound 13, 7-(4-bromobenzyl)-1,3-dioxohexahydroimidazo[1,5-a]pyrazin-2(3H)-yl 4-(4-chlorophenethyl)piperidine-1-carboxylate] | 0% | 10% | 75% | 90% | 0% | 10% | 75% | 90% | ABHD6 | FAAH,; also recorded: ABHD4,; also recorded: ABHD6 | FAAH,; also recorded: ABHD4,; also recorded: ABHD6 | FAAH,; also recorded: ABHD4,; also recorded: MAGL,; also recorded: ABHD6 | preferentially inhibited ABHD4 over ABHD3 | – | – | – | – |
| CC(C)(C)OC(=O)N1CCN2C(=O)N(OC(=O)N3CCN(C(c4ccc(Cl)cc4)c4ccc(Cl)cc4)CC3)C(=O)C2C1 (centres unmarked) [Compound 18, tert-butyl 2-(4-(bis(4-chlorophenyl)methyl)piperazine-1-carbonyloxy)-1,3-dioxohexahydroimidazo[1,5-a]pyrazine-7(1H)-carboxylate] | 0% | 10% | 50% | 60% | 0% | 10% | 50% | 60% | ABHD6 | ABHD6 | ABHD6 | ABHD6 | – | – | – | – | – |
| COc1ccc(N2CCN(C(=O)ON3C(=O)C4CN(C)CCN4C3=O)CC2)cc1 (centres unmarked) [Compound 23, 7-methyl-1,3-dioxohexahydroimidazo[1,5-a]pyrazin-2(3H)-yl 4-(4-methoxyphenyl)piperazine-1-carboxylate] | – | – | – | – | – | – | – | – | – | – | – | – | – | 0% @ | 0% @ | 100% @ | – |
| O=C(ON1C(=O)C2CN(C(=O)c3ccc(F)c([N+](=O)[O-])c3)CCN2C1=O)N1CCC(CCc2ccc(Cl)cc2)CC1 (centres unmarked) [Compound 9, 7-(4-fluoro-3-nitrobenzoyl)-1,3-dioxohexahydroimidazo[1,5-a]pyrazin-2(3H)-yl 4-(4-chlorophenethyl)piperidine-1-carboxylate] | – | 90% | 100% | 100% | – | 90% | 100% | 100% | – | ABHD6 | FAAH,; also recorded: ABHD12,; also recorded: ABHD6 | FAAH,; also recorded: ABHD12,; also recorded: MAGL,; also recorded: ABHD6 | – | – | – | – | – |
| COc1ccc(N2CCN(C(=O)ON3C(=O)C4CN(C(=O)OC(C)(C)C)CCN4C3=O)CC2)cc1 (centres unmarked) [Compound 21, tert-butyl 2-((4-(4-methoxyphenyl)piperazine-1-carbonyl)oxy)-1,3-dioxohexahydroimidazo[1,5-a]pyrazine-7(1H)-carboxylate] | – | – | – | – | – | – | – | – | – | – | – | – | – | 0% @ | 0% @ | 100% @ | – |
| COc1ccc(N2CCN(C(=O)ON3C(=O)NC(C(C)C)C3=O)CC2)cc1 (centres unmarked) [MJN193, 4-isopropyl-2,5-dioxoimidazolidin-1-yl 4-(4-methoxyphenyl)piperazine-1-carboxylate] | – | – | – | – | – | – | – | – | – | – | – | – | – | – | – | – | good potency and selectivity |
